Blank lines part the entries; values can stand above or below the molecule they belong to.
Assays:
TUBB2C = assay: Microarray gene expression in brain, spleen and liver of Hsd:Athymic Nude-Foxn1nu mice (Example 7), housekeeping gene; type: in vivo, mouse
Procedure: Total RNA was extracted from samples using the RNeasy extraction kit (Qiagen). The quality and concentration of the RNA was analyzed using the Agilent 2100 bioanalyzer and NanoDrop™ ND-1000 (Thermo Scientific). Samples with RNA integrity number (RIN)<6.0 were discarded. Total RNA (0.5 μg) amplification and labelling with Cy3 or Cy5 was carried out using the Eberwein mRNA amplification procedure (Van Gelder et al, Proc Natl Acad Sci USA 1990, 87:1663-1667) employing the MessageAmp™ aRNA amplification kit from Ambion (Applied Biosystems) following the manufacturer's instructions with minor modifications. As hybridization controls, plant mRNAs were transcribed from a plasmid containing the Zea mays Xet (xyloglucan endo-transglycosylase) cDNA and from a plasmid containing the Zea mays Zmmyb42 cDNA, independently prepared Cy3 and Cy5 labelled aRNA from these two RNAs using the Eberwein mRNA amplification procedure (as disclosed in Cerdà et al, Gen Comp Endocrinol 2008, 156:470-481).
The Cy3- and Cy5-labelled cRNAs and spikes were combined and hybridized to the microarray described in Example 2.6 for 17 h at 60° C. using Agilent's gaskets G2534-60002, G2534A hybridization chambers and DNA Hybridization Oven G2545A, according to the manufacturer's instructions. More specifically, equal amounts of Cy3 and Cy5 labeled Xet aRNA as well as equal amounts of Cy3 and Cy5 labeled Zmmyb42 aRNA were spiked into each mixture hybridized to the array. Arrays were washed and raw data were obtained using Agilent's DNA Microarray Scanner G2505B and Feature Extraction software (v10.1). The raw fluorescence intensity data were processed using applicant's proprietary software, and consists in the following operations:
Data normalization was carried out by an improved version of the nonlinear Q-splines normalization method (Workman et al., Genome Biol 2002, 3(9):research0048.1-0048.16). Normalization results were presented graphically as MA plots, as first described by Dudoit et al (Dudoit et al, Statistica Sinica, 2002, 12:111-139). Each point corresponds to a probe of the DNA array. M values (vertical axis) are the log-differential expression ratios. A values (horizontal axis) are the log-intensities of the spots. M and A are calculated from the Cy5 and Cy3 intensity values as of each spot. The DNA Array data is normalized using an improved version of non-linear Q-Splines normalization described by Workman et al., Genome Biol 2002, 3(9):research0048.1-0048.16. This process is useful to correct the deviation of the M values from the statistical assumption that most of the spots have M=0 in MA plots. The method allows the adjustment of all M values to form a cloud centered at M=0 in all intensity ranges. The data used to calculate the normalization fitting curve is the totality of the raw measurement dataset, excluding the signals for the probes for the spiked-in plant RNA controls and negative controls. In order to be able to normalize properly the data among all the experiments, the probe-set must include an important group of genes that should have no change (M=0) in the experiment. The normalization function is then applied to all the data, including controls.
Normalized and log-transformed data were used to calculate log 2 (sample/control) and Fold Change (FC) values. No background subtraction was applied to the signal intensity values during data processing, permitting robust selection of differentially expressed genes with low expression levels at the cost of potential sub-estimation of change when intensity levels are close to the array background level.
Powered Compound 3, 4 or 5 was dissolved in a 20% solution of 2-hydroxypropyl-R-cyclodextrin in water at the appropriate concentrations, vortexed and placed in an ultrasonic bath for 5 minutes.
Hsd:Athymic Nude-Foxn1nu mice were maintained in air- and temperature-controlled cages with regular supply of water and food. A maximum of 6 mice/cage were raised. […]

[1] = target: T1, Human recombinant LSD1 protein (Homo sapiens, UniProt O60341); assay: LSD1 in vitro biochemical assay (Amplex Red, di-methylated H3-K4 peptide)
T1 construct: amino acids 158-end with N-terminal GST tag; purchased BPS Bioscience Inc 50100
Description: The inhibitory activity of a compound of interest against LSD1 can be tested using the method described below: Human recombinant LSD1 protein from BPS Bioscience Inc (catalog reference number 50100: human recombinant LSD1, GenBank accession no. NM_015013, amino acids 158-end with N-terminal GST tag, MW: 103 kDa) was used. In order to monitor LSD1 enzymatic activity and/or its inhibition rate by a test compound, di-methylated H3-K4 peptide (Anaspec) was chosen as a substrate. The demethylase activity was estimated, under aerobic conditions, by measuring the release of H2O2 produced during the catalytic process, using the Amplex® Red hydrogen peroxide/peroxidase assay kit (Invitrogen).
Briefly, a fixed amount of LSD1 was incubated on ice for 15 minutes, in the absence and/or in the presence of at least eight 3-fold serial dilutions of the respective inhibitor (e.g., from 0 to 75 μM, depending on the inhibitor strength). Tranylcypromine (Biomol International) was used as a control for inhibition. Within the experiment, each concentration of inhibitor was tested in duplicate. After leaving the enzyme interacting with the inhibitor, KM of di-methylated H3-K4 peptide was added to each reaction and the experiment was left for 30 minutes at 37° C. in the dark. The enzymatic reactions were set up in a 50 mM sodium phosphate, pH 7.4 buffer. At the end of the incubation, Amplex® Red reagent and horseradish peroxidase (HPR) solution were added to the reaction according to the recommendations provided by the supplier (Invitrogen), and left to incubate for 5 extra minutes at room temperature in the dark. A 1 μM H2O2 solution was used as a control of the kit efficiency. The conversion of the Amplex® Red reagent to resorufin due to the presence of H2O2 in the assay, was monitored by fluorescence (excitation at 540 nm, emission at 590 nm) using a microplate reader (Infinite 200, Tecan). Arbitrary units were used to measure level of H2O2 produced in the absence and/or in the presence of inhibitor. The maximum demethylase activity of LSD1 was obtained in the absence of inhibitor and corrected for background fluorescence in the absence of LSD1. The IC50 value of each inhibitor was calculated with GraphPad Prism Software.

IC50 [1]: 0.16 µM
Molecule: NC(=O)CN[C@H]1C[C@@H]1c1ccc(OCc2ccccc2)cc1 (racemic) [Compound 3, 2-(((trans)-2-(4-(benzyloxy)phenyl)cyclopropyl)amino)acetamide]
Hybridization signal sample_Cy5 (TUBB2C; BRAIN, 5 mg/kg): 5903.12 | log2 (sample/control) (TUBB2C; BRAIN, 5 mg/kg vs VEH): 0.09115 | Hybridization signal sample_Cy5 (TUBB2C; BRAIN, 10 mg/kg): 6228.65 | log2 (sample/control) (TUBB2C; BRAIN, 10 mg/kg vs VEH): −0.008955 | Hybridization signal sample_Cy5 (TUBB2C; BRAIN, 20 mg/kg): 6935.27 | log2 (sample/control) (TUBB2C; BRAIN, 20 mg/kg vs VEH): 0.07289 | Hybridization signal sample_Cy5 (TUBB2C; BRAIN, 40 mg/kg): 7405.34 | log2 (sample/control) (TUBB2C; BRAIN, 40 mg/kg vs VEH): 0.06328 | Hybridization signal sample_Cy5 (TUBB2C; LIVER, 5 mg/kg): 2676.03 | log2 (sample/control) (TUBB2C; LIVER, 5 mg/kg vs VEH): −0.1194 | Hybridization signal sample_Cy5 (TUBB2C; LIVER, 10 mg/kg): 2301.43 | log2 (sample/control) (TUBB2C; LIVER, 10 mg/kg vs VEH): −0.2687 | Hybridization signal sample_Cy5 (TUBB2C; LIVER, 20 mg/kg): 2059.18 | log2 (sample/control) (TUBB2C; LIVER, 20 mg/kg vs VEH): −0.578 | Hybridization signal sample_Cy5 (TUBB2C; LIVER, 40 mg/kg): 1551.2 | log2 (sample/control) (TUBB2C; LIVER, 40 mg/kg vs VEH): −0.9728 | Hybridization signal sample_Cy5 (TUBB2C; SPLEEN, 5 mg/kg): 6245.92 | log2 (sample/control) (TUBB2C; SPLEEN, 5 mg/kg vs VEH): −0.05272 | Hybridization signal sample_Cy5 (TUBB2C; SPLEEN, 10 mg/kg): 4019.89 | log2 (sample/control) (TUBB2C; SPLEEN, 10 mg/kg vs VEH): −0.4863 | Hybridization signal sample_Cy5 (TUBB2C; SPLEEN, 20 mg/kg): 4597.76 | log2 (sample/control) (TUBB2C; SPLEEN, 20 mg/kg vs VEH): −0.4097 | Hybridization signal sample_Cy5 (TUBB2C; SPLEEN, 40 mg/kg): 8986.8 | log2 (sample/control) (TUBB2C; SPLEEN, 40 mg/kg vs VEH): −0.9476

Molecule: CN1CCN(C(=O)CN[C@H]2C[C@@H]2c2ccc(OCc3ccccc3)cc2)CC1 (racemic) [Compound 4, 2-(((trans)-2-(4-(benzyloxy)phenyl)cyclopropyl)amino)-1-(4-methylpiperazin-1-yl)ethan-1-one]
Hybridization signal sample_Cy5 (TUBB2C; BRAIN, 1 mg/kg): 10016.7 | log2 (sample/control) (TUBB2C; BRAIN, 1 mg/kg vs VEH): −0.04912 | Hybridization signal sample_Cy5 (TUBB2C; BRAIN, 3 mg/kg): 9877.42 | log2 (sample/control) (TUBB2C; BRAIN, 3 mg/kg vs VEH): −0.06585 | Hybridization signal sample_Cy5 (TUBB2C; BRAIN, 10 mg/kg): 11991.7 | log2 (sample/control) (TUBB2C; BRAIN, 10 mg/kg vs VEH): −0.04291 | Hybridization signal sample_Cy5 (TUBB2C; LIVER, 1 mg/kg): 4327.04 | log2 (sample/control) (TUBB2C; LIVER, 1 mg/kg vs VEH): 0.2971 | Hybridization signal sample_Cy5 (TUBB2C; LIVER, 3 mg/kg): 3201.33 | log2 (sample/control) (TUBB2C; LIVER, 3 mg/kg vs VEH): 0.1069 | Hybridization signal sample_Cy5 (TUBB2C; LIVER, 10 mg/kg): 3143.68 | log2 (sample/control) (TUBB2C; LIVER, 10 mg/kg vs VEH): 0.3292 | Hybridization signal sample_Cy5 (TUBB2C; SPLEEN, 1 mg/kg): 13305.5 | log2 (sample/control) (TUBB2C; SPLEEN, 1 mg/kg vs VEH): −0.3124 | Hybridization signal sample_Cy5 (TUBB2C; SPLEEN, 3 mg/kg): 11689.6 | log2 (sample/control) (TUBB2C; SPLEEN, 3 mg/kg vs VEH): −0.4339 | Hybridization signal sample_Cy5 (TUBB2C; SPLEEN, 10 mg/kg): 6541.2 | log2 (sample/control) (TUBB2C; SPLEEN, 10 mg/kg vs VEH): −1.316

IC50 [1]: 0.06 µM
Molecule: N[C@H]1CCN(CCN[C@H]2C[C@@H]2c2ccc(-c3cccc(C(F)(F)F)c3)cc2)C1 (racemic) [Compound 5, (S)-1-(2-(((trans)-2-(3′-(trifluoromethyl)-[1,1′-biphenyl]-4-yl)cyclopropyl)amino)ethyl)pyrrolidin-3-amine]
Hybridization signal sample_Cy5 (TUBB2C; BRAIN, 3.3 mg/kg): 10642 | log2 (sample/control) (TUBB2C; BRAIN, 3.3 mg/kg vs VEH): −0.01396 | Hybridization signal sample_Cy5 (TUBB2C; BRAIN, 11 mg/kg): 11161.1 | log2 (sample/control) (TUBB2C; BRAIN, 11 mg/kg vs VEH): −0.06127 | Hybridization signal sample_Cy5 (TUBB2C; BRAIN, 33 mg/kg): 12584.1 | log2 (sample/control) (TUBB2C; BRAIN, 33 mg/kg vs VEH): −0.05145 | Hybridization signal sample_Cy5 (TUBB2C; LIVER, 3.3 mg/kg): 3670.67 | log2 (sample/control) (TUBB2C; LIVER, 3.3 mg/kg vs VEH): 0.3692 | Hybridization signal sample_Cy5 (TUBB2C; LIVER, 11 mg/kg): 3985.13 | log2 (sample/control) (TUBB2C; LIVER, 11 mg/kg vs VEH): 0.457 | Hybridization signal sample_Cy5 (TUBB2C; LIVER, 33 mg/kg): 4335.41 | log2 (sample/control) (TUBB2C; LIVER, 33 mg/kg vs VEH): 0.3205 | Hybridization signal sample_Cy5 (TUBB2C; SPLEEN, 3.3 mg/kg): 8986.8 | log2 (sample/control) (TUBB2C; SPLEEN, 3.3 mg/kg vs VEH): −0.9476 | Hybridization signal sample_Cy5 (TUBB2C; SPLEEN, 11 mg/kg): 9222.71 | log2 (sample/control) (TUBB2C; SPLEEN, 11 mg/kg vs VEH): −0.8739 | Hybridization signal sample_Cy5 (TUBB2C; SPLEEN, 33 mg/kg): 6535.64 | log2 (sample/control) (TUBB2C; SPLEEN, 33 mg/kg vs VEH): −1.41

Molecule: (+) 5-((((trans)-2-(4-(benzyloxy)phenyl)cyclopropyl)amino)methyl)-1,3,4-oxadiazol-2-amine [Compound 2]
IC50 [1]: 2.3 µM

Molecule: (−) 5-((((trans)-2-(4-(benzyloxy)phenyl)cyclopropyl)amino)methyl)-1,3,4-oxadiazol-2-amine [Compound 1]
IC50 [1]: 0.09 µM

Reference: US20180284095A1, “BIOMARKERS ASSOCIATED WITH LSD1 INHIBITORS AND USES THEREOF” (Oryzon Genomics, S.A., priority 2015, published 2018)
